In the supplement of paper PMC10307832:

How the values were obtained:
Assay in all cases: relative viability (nuclei count vs DMSO), 5 days (fraction); higher = more cells survive
NCI-H358 = test system: NCI-H358
Method in brief: (§1)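 Relative viability is defined as nuclei in treated wells over nuclei in vehicle wells. Duplicate plates were run and medians reported. Lung cancer cell lines in 1536-well plates were dosed by pin tool one day after seeding, with one drug or with a fixed anchor-drug dose plus five library-drug doses (not always all listed) in √10 steps, and nuclei were counted after 5 days.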

NCI-H838 = test system: NCI-H838
Method in brief: as §1

NCI-H1915 = test system: NCI-H1915
Method in brief: as §1

NCI-H650 = test system: NCI-H650
Method in brief: as §1

SW 1573 = test system: SW 1573
Method in brief: as §1

HARA = test system: HARA
Method in brief: as §1

PC-14 = test system: PC-14
Method in brief: as §1

HCC-78 = test system: HCC-78
Method in brief: as §1

HCC-15 = test system: HCC-15
Method in brief: as §1

NCI-H2347 = test system: NCI-H2347
Method in brief: as §1

NCI-H1355 = test system: NCI-H1355
Method in brief: as §1

## NC(=O)Nc1cc(-c2cccc(F)c2)sc1C(=O)N[C@H]1CCCNC1 [AZD7762] + Cc1nc(NC(=O)N2CCC[C@H]2C(N)=O)sc1-c1ccnc(C(C)(C)C(F)(F)F)c1 [Alpelisib] (partner 2 µM)
NCI-H358; first compound 0.01 µM
  relative viability: 0.819
NCI-H358; first compound 0.03162 µM
  relative viability: 0.964
NCI-H358; first compound 0.1 µM
  relative viability: 0.837
NCI-H358; first compound 0.3162 µM
  relative viability: 0.629
NCI-H358; first compound 1 µM
  relative viability: 0.33
NCI-H838; first compound 0.01 µM
  relative viability: 1
NCI-H838; first compound 0.03162 µM
  relative viability: 1.01
NCI-H838; first compound 0.1 µM
  relative viability: 0.871
NCI-H838; first compound 0.3162 µM
  relative viability: 0.959
NCI-H838; first compound 1 µM
  relative viability: 0.616
NCI-H1915; first compound 0.01 µM
  relative viability: 1.06
NCI-H1915; first compound 0.03162 µM
  relative viability: 1.12
NCI-H1915; first compound 0.1 µM
  relative viability: 1.09
NCI-H1915; first compound 0.3162 µM
  relative viability: 1.09
NCI-H1915; first compound 1 µM
  relative viability: 0.997
NCI-H650; first compound 0.01 µM
  relative viability: 1.19
NCI-H650; first compound 0.03162 µM
  relative viability: 1.12
NCI-H650; first compound 0.1 µM
  relative viability: 1.19
NCI-H650; first compound 0.3162 µM
  relative viability: 1.27
NCI-H650; first compound 1 µM
  relative viability: 1.02
SW 1573; first compound 0.01 µM
  relative viability: 0.885
SW 1573; first compound 0.03162 µM
  relative viability: 0.807
SW 1573; first compound 0.1 µM
  relative viability: 0.926
SW 1573; first compound 0.3162 µM
  relative viability: 1.08
SW 1573; first compound 1 µM
  relative viability: 0.647
HARA; first compound 0.01 µM
  relative viability: 0.889
HARA; first compound 0.03162 µM
  relative viability: 0.887
HARA; first compound 0.1 µM
  relative viability: 0.825
HARA; first compound 0.3162 µM
  relative viability: 0.751
HARA; first compound 1 µM
  relative viability: 0.824
PC-14; first compound 0.01 µM
  relative viability: 0.894
PC-14; first compound 0.03162 µM
  relative viability: 0.953
PC-14; first compound 0.1 µM
  relative viability: 0.922
PC-14; first compound 0.3162 µM
  relative viability: 0.919
PC-14; first compound 1 µM
  relative viability: 0.392
HCC-78; first compound 0.01 µM
  relative viability: 0.371
HCC-78; first compound 0.03162 µM
  relative viability: 0.419
HCC-78; first compound 0.1 µM
  relative viability: 0.361
HCC-78; first compound 0.3162 µM
  relative viability: 0.394
HCC-78; first compound 1 µM
  relative viability: 0.287
HCC-15; first compound 0.01 µM
  relative viability: 0.995
HCC-15; first compound 0.03162 µM
  relative viability: 0.945
HCC-15; first compound 0.1 µM
  relative viability: 0.983
HCC-15; first compound 0.3162 µM
  relative viability: 0.93
HCC-15; first compound 1 µM
  relative viability: 1.12
NCI-H2347; first compound 0.01 µM
  relative viability: 1.07
NCI-H2347; first compound 0.03162 µM
  relative viability: 0.993
NCI-H2347; first compound 0.1 µM
  relative viability: 1.11
NCI-H2347; first compound 0.3162 µM
  relative viability: 1.26
NCI-H2347; first compound 1 µM
  relative viability: 1.01
NCI-H1355; first compound 0.01 µM
  relative viability: 0.894
NCI-H1355; first compound 0.03162 µM
  relative viability: 0.886
NCI-H1355; first compound 0.1 µM
  relative viability: 0.825
NCI-H1355; first compound 0.3162 µM
  relative viability: 0.861
NCI-H1355; first compound 1 µM
  relative viability: 0.852
